Assay results: US7998981B2, “Aminoaryl sulphonamide derivatives as functional 5-HT6 ligands” (Suven Life Sciences Limited, priority 2005, dated 2011)
pKi: −log10 of the molar value.

Legend:
Human 5-HT6 Receptor = target: T1, Human 5-HT6 Receptor (Homo sapiens, UniProt P50406); experiment: Nova Screen binding assay for human 5-HT6 receptor ([3H]LSD radioligand binding); details: human recombinant receptor expressed in HEK293 cells, [3H]LSD 1.5 nM; for inhibition at 0.1 µM: read-out: % Inhibition at 100 nM, radioligand binding data at 5ht6R (h); for pKi: 60 minutes at 37° C., read-out: Ki, radioligand binding data at 5ht6R (h)
T1 construct: host or cells: HEK293
Experimental: Nova Screen Binding Assay for Human 5-HT6 Receptor
Pharmacological data Compounds can be tested according to the following the procedures.
Receptor source: Human recombinant expressed in HEK293 cells
Radioligand: [^3H]LSD (60-80 Ci/mmol)
Final ligand concentration—[1.5 nM]
Non-specific determinant: Methiothepin mesylate—[0.1 μM]
Reference compound: Methiothepin mesylate
Positive control: Methiothepin mesylate
Incubation conditions: Reactions were carried out in 50 mM TRIS-HCl (pH 7.4) containing 10 mM MgCl2, 0.5 mM EDTA for 60 minutes at 37° C. The reaction was terminated by rapid vacuum filtration onto glass fiber filters. Radioactivity trapped onto the filters was determined and compared to control values in order to ascertain any interactions of test compound(s) with the cloned serotonin -5HT6 binding site.
Literature Reference: Monsma F. J. Jr., et al., Molecular Cloning and Expression of Novel Serotonin Receptor with High Affinity for Tricyclic Psychotropic Drugs. Mol. Pharmacol. (43): 320-327 (1993).

Adult male Wistar rats = experiment: Passive avoidance (single-trial, step through, light-dark paradigm); assay type: in vivo, rat; details: 10 mg/Kg oral dose; recall 24 h, 72 h and 7 day post-training (FIG. 2)
Source text: Passive Avoidance Apparatus Animals were trained in a single-trial, step through, light-dark passive avoidance paradigm. The training apparatus consisted of a chamber 300 mm in length, 260 mm wide, and 270 mm in height, constructed to established designs. The front and top were transparent, allowing the experimenter to observe the behavior of the animal inside the apparatus. The chamber was divided into two compartments, separated by a central shutter that contained a small opening 50 mm wide and 75 mm high set close to the front of the chamber. The smaller of the compartments measured […] in width and contained a low-power (6V) illumination source. The larger compartment measured 210 mm in width and was not illuminated. […] A resistance range of […] was calculated for a control group of rats and the apparatus was calibrated accordingly. […] Latency to enter the dark chamber was recorded (usually <20 s), and having completely entered the dark compartment an inescapable foot shock of 0.75 mA for 3 s was administered to the animal. […] Recall of this inhibitory stimulus was evaluated 24 h, 72 h and on 7 day post-training by returning the animal into the light chamber and recording their latency to enter the dark chamber, a criterion time of 300 s was employed.

Male Wistar rats = experiment: Object recognition task model; assay type: in vivo, rat; details: orally or i.p. one hour before T1 and T2; T2 24 hour after T1; example 6 at 10 mg/Kg orally (FIG. 1)
Experimental: Object Recognition Task Model
The cognition-enhancing properties of compounds of this invention were estimated using a model of animal cognition: the object recognition task model.
Male wistar rats (230-280 g) obtained from N I.N. (National Institute of Nutrition, Hyderabad, India) were used as an experimental animal. Four animals were housed in each cage. Animals were kept on 20% food deprivation before one day and given water ad libitum throughout the experiment, and maintained on a 12 h light/dark cycle. Also the rats were habituated to individual arenas for 1 hour in absence of any objects.
One group of 12 rats received vehicle (1 mL/Kg) orally and another set of animals received compound of the formula (I) either orally or i.p., before one hour of the familiar (T1) and choice trial (T2). The experiment was carried out in a 50×50×50 Cm open field made up of acrylic. In the familiarization phase, (T1), the rats were placed individually in the open field for 3 min., in which two identical objects (plastic bottles, 12.5 Cm height×5.5 Cm diameter) covered in yellow masking tape alone (a1 and a2) were positioned in two adjacent corners, 10 Cm. from the walls. After 24 hour of the (T1) trial for long-term memory test, the same rats were placed in the same arena as they were placed in T1 trial. […]

T1 sequence (P50406 whole entry): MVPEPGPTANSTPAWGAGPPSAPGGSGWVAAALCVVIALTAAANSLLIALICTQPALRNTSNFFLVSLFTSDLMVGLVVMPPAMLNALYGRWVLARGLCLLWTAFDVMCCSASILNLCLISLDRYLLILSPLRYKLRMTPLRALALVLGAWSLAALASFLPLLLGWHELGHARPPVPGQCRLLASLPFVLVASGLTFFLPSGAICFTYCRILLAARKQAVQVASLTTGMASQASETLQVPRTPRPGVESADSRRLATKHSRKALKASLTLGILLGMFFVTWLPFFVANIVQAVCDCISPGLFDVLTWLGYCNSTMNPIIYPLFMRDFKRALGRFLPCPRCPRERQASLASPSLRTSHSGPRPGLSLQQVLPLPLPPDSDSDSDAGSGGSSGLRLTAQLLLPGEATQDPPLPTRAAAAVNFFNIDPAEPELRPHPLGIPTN

## COc1ccc2c(ccn2S(=O)(=O)c2cccc(NC3CCN(C)CC3)c2)c1 [Example 2, 1-[3-(1-Methylpiperidin-4-yl)amino]benzenesulfonyl-5-methoxyindole]
Human 5-HT6 Receptor; 100 nM
  inhibition at 0.1 µM: 82.2%
Human 5-HT6 Receptor
  pKi: 7.90

## COc1ccc(S(=O)(=O)n2ccc3ccccc32)cc1NC1CCN(C)CC1 [Example 17, 1-[3-(1-Methylpiperidin-4-yl)amino-4-methoxy]benzenesulfonyl-1H-indole]
Human 5-HT6 Receptor; 100 nM
  inhibition at 0.1 µM: 101%
Human 5-HT6 Receptor
  pKi: 8.89

## CN1CCC(Nc2cccc(S(=O)(=O)n3ccc4cc(F)ccc43)c2)CC1 [Example 6, 1-[3-(1-Methylpiperidin-4-yl)amino]benzenesulfonyl-5-fluoroindole]
Adult male Wistar rats
  latency to reach the dark zone: significant increase in latency
Human 5-HT6 Receptor; 100 nM
  inhibition at 0.1 µM: 93.2%
Human 5-HT6 Receptor
  pKi: 8.15
Male Wistar rats
  novel object recognition (exploration time with novel object, discrimination index): positive effects

## CN1CCC(Nc2cc(S(=O)(=O)n3ccc4ccccc43)ccc2F)CC1 [Example 25, 1-[3-(1-Methylpiperidin-4-yl)amino-4-Fluoro]benzenesulfonylindole]
Human 5-HT6 Receptor; 100 nM
  % Inhibition at 100 nM, radioligand binding data at 5ht6R (h): 99.33%

## CN1CCC(Nc2cccc(S(=O)(=O)n3ccc4cc(Br)ccc43)c2)CC1 [Example 4, 1-[3-(1-Methylpiperidin-4-yl)amino]benzenesulfonyl-5-bromoindole]
Human 5-HT6 Receptor; 100 nM
  inhibition at 0.1 µM: 92.2%
Human 5-HT6 Receptor
  pKi: 7.99

## COc1ccc2c(ccn2S(=O)(=O)c2ccc(C)c(NC3CCN(C)CC3)c2)c1 [Example 10, 1-[3-(1-Methylpiperidin-4-yl)amino-4-methyl]benzenesulfonyl-5-methoxyindole]
Human 5-HT6 Receptor; 100 nM
  inhibition at 0.1 µM: 85.3%
Human 5-HT6 Receptor
  pKi: 7.68

## CN1CCC(Nc2cccc(S(=O)(=O)n3ccc4ccccc43)c2)CC1 [Example 1, 1-[3-(1-Methylpiperidin-4-yl)amino]benzenesulfonyl-1H-indole]
Human 5-HT6 Receptor; 100 nM
  inhibition at 0.1 µM: 96.8%
Human 5-HT6 Receptor
  pKi: 8.50
